The subject of series [1] is BALB/c cells (primary peritoneal macrophages). The experiment in a line: LPS-IFN-γ-induced macrophage NO production (Griess nitrite assay), BALB/c cells. It is filed as cell-based, mouse. How it is done: (§1) Isolation of primary mouse macrophages. Peritoneal exudate macrophages were isolated by peritoneal lavage with ice-cold sterile physiological saline 24 h after intraperitoneal injection of BALB/c and CB57BL/6 mice with 0.3 ml of sterile Zymosan A (1 mg/0.5 ml 0.9% saline). Cells were washed, resuspended in RPMI 1640 supplemented with 2 mM L-glutamine, 100 units/ml penicillin, 100 μg/ml streptomycin, and 5% FBS.
(§2) Treatment of primary macrophages and RAW 264.7 cells. Primary macrophages (1.5×10^5 cells/well) and RAW 264.7 (4×10^4 cells/well) cells were grown in 96-well plates (nitrite assay), or 6-well plates (2×10^6 cells/well) for measurement of iNOS and COX-2 expression. Following 3 h incubation, at 37 C, 5% CO2 (macrophages were allowed to attach) cells were stimulated with LPS (0.5 μg/ml) and IFN-γ (100 U/ml) in the absence or presence of various concentrations of ILK inhibitors (all treatments were replicated six times). Cells were incubated for an additional 24 h, and cell free culture supernatants from each well were collected for NO and cytokine determination. The remaining cells were stained with crystal violet to determine effect of the inhibitors on cell survival.
(§3) NO production. Following stimulation, the production of NO was determined by assaying culture supernatants for NO2^−, a stable reaction product of NO with molecular oxygen. Briefly, 100 μl of culture supernatant was reacted with an equal volume of Griess reagent at room temperature for 10 min. The absorbance at 550 nm was determined. All measurements were performed six times. The concentration of NO2^−was calculated by comparison with a standard curve prepared using NaNO2.
(§4) Effects of ILK inhibitors on LPS-IFN-γ-induced NO release. […] […] To compare the effect of the compounds across three different cell types, the NO release for each cell type was expressed relative to DMSO treated cells. […] For example, macrophages from Balb/c and C57BL/6 mice responded similarly to the treatment with the compounds.

Series [2] concerns C57BL/6 cells (primary peritoneal macrophages). The experiment in a line: LPS-IFN-γ-induced macrophage NO production (Griess nitrite assay), C57BL/6 cells. The series is classed as cell-based, mouse. On the procedure: as §1, §2, §3, §4
For orientation: Griess reagent forms a coloured azo dye with nitrite.

Series [3] has as its system RAW 264.7 cells. The experiment in a line: LPS-IFN-γ-induced macrophage NO production (Griess nitrite assay), RAW 264.7 cells. It is filed as cell-based, murine. On the procedure: RAW 264.7 cells. RAW 264.7 cells, a murine macrophage cell line, were obtained from American Type Culture Collection (ATCC, Manassas, Va.) and cultured in DMEM supplemented with 10% FCS. Each treatment was performed in triplicate wells. RAW 264.7 cells (Balb/c background) produce a significant amount of nitric oxide upon treatment with IFN-γ alone, but require LPS for full activation. This property makes their behavior more like that of normal macrophages obtained from commonly used strains of mice.
(§5) Treatment of primary macrophages and RAW 264.7 cells. […] Following 3 h incubation, at 37 C, 5% CO2 (macrophages were allowed to attach) cells were stimulated with LPS (0.5 μg/ml) and IFN-γ (100 U/ml) in the absence or presence of various concentrations of ILK inhibitors (all treatments were replicated six times). Cells were incubated for an additional 24 h, and cell free culture supernatants from each well were collected for NO and cytokine determination. The remaining cells were stained with crystal violet to determine effect of the inhibitors on cell survival.
as §3
Effects of ILK inhibitors on LPS-IFN-γ-induced NO release. […] […] To compare the effect of the compounds across three different cell types, the NO release for each cell type was expressed relative to DMSO treated cells.

Series [4] concerns BALB/c cells (primary peritoneal macrophages). The experiment in a line: Cell survival by crystal violet staining, BALB/c cells. The settings on record: BALB/c cells. The series is classed as cell-based. On the procedure:
as §5
(§6) Effect of ILK Inhibitors on suppression of NO production and cell survival. Twenty-four hours following treatment with the ILK inhibitors, aliquots from the cell-free supernatants were assayed for NO and IL-6 release. Surviving cells were stained and fixed (crystal violet 0.05% in 20% ethanol), to determine if the decrease in NO production was related to a decrease in cell number due to toxicity of the compounds.

The subject of series [5] is C57BL/6 cells (primary peritoneal macrophages). The experiment in a line: Cell survival by crystal violet staining, C57BL/6 cells. The series is classed as cell-based. How it is done:
as §5, §6

The subject of series [6] is RAW 264.7 cells. The experiment in a line: Cell survival by crystal violet staining, RAW 264.7 cells. It is filed as cell-based. On the procedure:
as §2
Effect of ILK Inhibitors on suppression of NO production and cell survival. Twenty-four hours following treatment with the ILK inhibitors, aliquots from the cell-free supernatants were assayed for NO and IL-6 release. Surviving cells were stained and fixed (crystal violet 0.05% in 20% ethanol), to determine if the decrease in NO production was related to a decrease in cell number due to toxicity of the compounds. […] Only those compounds that induced strong inhibition of NO release, and caused no significant cell death were selected for further evaluation.

The subject of a further series is HUVEC cells. The experiment in a line: In vitro Matrigel morphogenesis (tube formation) assay of VEGF stimulated HUVEC cells. It is filed as cell-based, human. The settings on record: 100 mM (so in the source). On the procedure: In Vitro Angiogenesis. […] After 5 hours of incubation in a 5% CO2-humidified atmosphere at 37 °C, the three-dimensional organization of the cells was examined using an inverted photomicroscope. The cells were fixed with Crystal Violet (0.05% in 20% ethanol) and digitally photographed.
To determine the anti-angiogenic properties of ILK inhibitors, an in vitro Matrigel morphogenesis assay was established. This assay evaluates the ability of endothelial cells to differentiate into capillary-like structures, a crucial step during neovascularization. HUVEC cells when stimulated with VEGF and seeded onto Matrigel rapidly attach to the matrix and begin to migrate and interact with the extracellular matrix proteins present in the Matrigel. […] These capillary-like structures can be assessed by histology (FIG. 2). Samples are cut on a cross section and subsequent viewed using an electron microscope. Typically, cylindrical formations with a lumen are observed. A distinct difference in the morphology of tube formation on Matrigel, compared to other in vitro angiogenesis assays is a reduction in the proliferation of endothelial cells. […] Using this model system, both inhibitors and stimulators of angiogenesis can be assessed prior to in vivo testing.
The assay was established and reproducibility confirmed. SU5416, shown to inhibit angiogenesis in other assays, was also evaluated. […]

Series [7] relates to IL-6 release in macrophages. The experiment in a line: LPS-IFN-γ-induced IL-6 release in macrophages (ELISA). The series is classed as cell-based, murine. The conditions noted are these: 50 μM, added at the onset of the culture. On the procedure:
as §2
Enzyme immunoassays for mouse IL-6. IL-6 levels were determined with PharMingen's OptElA ELISA set developed using an anti-mouse IL-6 Ab pair and mouse rIL-6 standard (PharMingen). Maxisorp F16 multiwell strips (Nunc, Roskilde, Denmark) were coated with anti-mouse IL-6 capture Ab (at recommended concentration) in 0.1 M NaHCO3, pH 9.5, 100 μl/well, overnight at 4° C. Plates were washed three times with 0.05% Tween 20 in PBS (PBST) and blocked for 1 h at room temperature with 200 μl/well of 10% FCS in PBS (blocking and dilution buffer). […] Absorbance was read at 450 nm with an EL 312e microplate reader. […]
A general note: ELISA stands for enzyme-linked immunosorbent assay.

Molecules are shown by their SMILES.

Consider `C[C@@H]1C[C@H]2[C@@H]3CCC4=CC(=O)C=C[C@]4(C)[C@@]3(F)[C@@H](O)C[C@]2(C)[C@@]1(O)C(=O)CO` [Dex, Dexamethasone], for which the “NO inhibition (%)” value is recorded as 28% in series [1] (0.5 mM); 36% in series [1] (1 mM); 32% in series [2] (0.5 mM); 53% in series [2] (1 mM); −6% in the series on RAW 264.7 cells [3] (0.5 mM); −9% in the series with RAW 264.7 cells [3] (1 mM). Besides, the “NO release (%)” value in series [1] (0.5 mM) was determined as 60.6%; in series [1] (1 mM), 46.7%; in series [2] (0.5 mM) it was 67.9%; in series [2] (1 mM), 46.6%; in the series with RAW 264.7 cells [3] (0.5 mM), 103.6%; in the series with RAW 264.7 cells [3] (1 mM), 87.1%. Besides, the “Survival (%)” value in series [4] (0.5 mM) was 84%; in series [4] (1 mM) it was 73%; in series [5] (0.5 mM), 87%; in series [5] (1 mM), 68%; in the series on RAW 264.7 cells [6] (0.5 mM) it was 98%; in the series on RAW 264.7 cells [6] (1 mM), 80%.

As for `CNC(=N)NCCC[C@H](N)C(=O)O` [L-NMMA, N^G-Monomethyl-L-arginine], the “NO inhibition (%)” value in series [1] (0.5 mM) is given as 92%; in series [1] (1 mM), 97%; in series [2] (0.5 mM), 92%; in series [2] (1 mM), 99%; in the series with RAW 264.7 cells [3] (0.5 mM) it was 52%; in the series on RAW 264.7 cells [3] (1 mM), 63%. In addition, the “NO release (%)” value in series [1] (0.5 mM) is 7.9%; in series [1] (1 mM) it was 3.1%; in series [2] (0.5 mM), 8.3%; in series [2] (1 mM), 1.1%; with RAW 264.7 cells [3] (0.5 mM), 44.2%; in the series on RAW 264.7 cells [3] (1 mM), 31.7%. The “Survival (%)” value in series [4] (0.5 mM) stood at 97%; in series [4] (1 mM), 94%; in series [5] (0.5 mM), 97%; in series [5] (1 mM), 99%; with RAW 264.7 cells [6] (0.5 mM), 92%; with RAW 264.7 cells [6] (1 mM), 86%.

`Cc1cc(C)c(/C=C2\C(=O)Nc3ccccc32)[nH]1` [SU5146, reference compound]: the “Effect on endothelial cell morphogenesis (in words)” value in the series with HUVEC cells is given as “did not affect endothelial cell morphogenesis”.

For the molecule `C[C@]12CCC(=O)C=C1CC[C@@H]1[C@@H]2[C@@H](O)C[C@@]2(C)[C@H]1CC[C@]2(O)C(=O)CO` [hydrocortisone, Hydrocortisone, reference compound], in series [7], the “Effect on IL-6 release (in words)” value is “moderately suppressed IL-6 release”.

The values above are taken from patent US20050220779A1, “Integrin linked kinase modulation of macrophage activation” (priority 2001, published 2005).
